The record followed here is patent US20030176436A1, “Novel heterocyclic compounds as selective bacterial DHFR inhibitors and their uses thereof” (priority 2001, published 2003).

Assay [1] concerns S. aureus. Description: Microdilution antimicrobial susceptibility test (MIC). Type of assay: cell-based. As to conditions: Staphylococcus aureus. On the technique in general: In broth dilution the organism is exposed to a series of concentrations in liquid medium.
The test system of assay [2] is S. aureus. The assay can be described thus: S. aureus mouse septicaemia model. Type of assay: in vivo. As to conditions: administered orally; mouse protection model. Here is the method:
Systemic models of infection are described in the literature. The following conditions can be used to assay the compounds in this application. Bacteria are grown in Mueller-Hinton agar at 37° C. during 24 h. For each experiment, a bacterial suspension is prepared by inoculating 4-5 bacterial colonies onto Mueller-Hinton broth (MHB) and by incubating at 37° C. for 24 hours to yield approximately 10^9 CFU/ml. BalbC female mice are supplied by Charles River (Deutschland). Animals are infected by a single administration of an LD100 dose of bacterial culture suspension (1×10^8 CFU/100 μl per animal) in the tail vein. A careful clinical examination is made several times a day, and obvious clinical symptoms and mortality are recorded. Animals survival is observed for a period of 6 days. Azithromycin is dissolved in 0.5% methocel in saline solution and administered orally. Test compounds are micronized with mortar and pestle and then dissolved in methocel saline solution with 3% of DMF. The first dose is administered 30 minutes after infection, with following doses every 12 hours for 3 days.
In vivo Efficacy Testing—S. aureus Mouse Septicaemia Model.
Several compounds were tested in a S. aureus mouse protection models for efficacy. Two compounds, 25 and 62, protected 40% of treated animals from the lethal infection when administered orally.

For the next assay, the target named is T1, bacterial DHFR (bDHFR) (Escherichia coli, UniProt P0ABQ4).
T1 construct: gift of Eric Brown, McMaster University
Description: DHFR enzyme assay, Ki determination, bacterial DHFR. The assay is classed as biochemical, E. coli.

Another assay deals with S. pneumoniae. The assay can be described thus: Microdilution antimicrobial susceptibility test (MIC). Type of assay: cell-based. Particulars: Streptococcus pneumoniae; Table 2; 90% inhibition of growth.
In another assay the test system is E. faecalis. The assay is described as above. The assay is classed as cell-based. As to conditions: Enterococcus faecalis; Table 2; 90% inhibition of growth.
In another assay the test system is E. coli. The description is as above. Particulars: Escherichia coli; Table 2; 90% inhibition of growth. Type of assay: cell-based.
A further assay has as its system P. aeruginosa. The assay is described as above. The assay is classed as cell-based. Particulars: Pseudomonas aeruginosa; Table 2; 90% inhibition of growth.
In a further assay the test system is H. influenzae. The description is as above. Type of assay: cell-based. Particulars: Haemophilus influenzae; Table 2; 90% inhibition of growth; read-out: MIC H. influenzae.
The next assay relates to M. catarrhalis. The description is as above. Particulars: Moraxella catarrhalis; Table 2; 90% inhibition of growth. Type of assay: cell-based.
In another assay the target is T2, human DHFR (hDHFR) (Homo sapiens, UniProt P00374).
T2 construct: result in the amplification of a 186 amino acid hDHFR coding region; made in house; host or cells: E. coli Top10
T2 sequence (P00374 1-187): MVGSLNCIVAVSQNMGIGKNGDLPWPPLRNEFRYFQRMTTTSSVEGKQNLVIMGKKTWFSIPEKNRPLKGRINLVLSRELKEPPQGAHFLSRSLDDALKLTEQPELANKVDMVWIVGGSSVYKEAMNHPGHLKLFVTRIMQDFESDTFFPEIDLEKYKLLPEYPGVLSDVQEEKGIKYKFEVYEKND
The assay can be described thus: DHFR enzyme assay, Ki determination, human DHFR. The assay is classed as biochemical. As to conditions: Table 3. The protocol: The human DHFR cDNA was cloned by PCR from the Human Universal Quick-clone™ cDNA purchased from Clontech.
The PCR fragment was digested with restriction enzymes NdeI and HindIII, and then ligated into a derivative of the pKK223-3 expression vector (Amersham Pharmacia). The final expression vector (pFW96.2) was transformed into E. coli Top10 F40 and hDHFR protein was induced by the addition of 1 mM IPTG followed by incubation at 37° C. for 4 hrs. Recombinant human DHFR was purified based on a previously published procedure (2).
Dihydrofolic acid and NADPH were purchased from Sigma. Enzyme assays were adapted for microtitre format from a previously published procedure (2, 3). All assays were performed in a 250 μl volume in 96-well microtitre plates. Typical assays consisted of 20 nM DHFR (human or E. coli), 100 μM NADPH, and 50 μM dihydrofolic acid in 100 mM HEPES pH 8, 10 mM KCl, and 10 mM MgCl2. The assay was monitored spectrophotometrically for the conversion of NADPH to NADP+, which results in a decrease in absorbance at 340 nm.
Five microliters of inhibitor compound in DMSO was added to 120 μl of enzyme solution (40 nM DHFR and 200 μM NADPH). The reaction was initiated by the addition of 125 μl of 100 μM dihydrofolic acid. The final concentrations in the assay were 20 nM DHFR, 100 μM NADPH, 50 μM dihydrofolic acid, and a range of 500 μM to 20 nM inhibitor compound. The final DMSO concentration was 2% of the total volume. Reactions were monitored as described above.
V=(Vmax[S])/(Km(1+I/Ki)+[S]), where S=dihydrofolate, Km=Michaelis constant for dihydrofolate, I=inhibitor concentration.

The next assay deals with S. cerevisiae. Description: Microdilution susceptibility test (MIC), yeast as indicator of cytotoxicity. Type of assay: cell-based. Particulars: Saccharomyces cerevisiae; Table 2; 90% inhibition of growth. The source says: The following table of compounds of one aspect of the invention have potent antimicrobial activity against S. aureus bacteria and are anticipated to have physical-chemical properties similar to those of orally absorbed and bioavailable drugs and drug-like compounds. Antibacterial activity for a variety of bacterial species are shown (S. aureus, S. pneumoniae, E. faecalis, M. catarrhalis, and H. influenzae). The yeast cell (S. cerevisiae) in this panel of organisms is an indicator of potential cytotoxicity in mammalian cells.
Stock solutions of tested compounds were prepared in N,N-dimethylformamide (DMF) at a concentration of 5 mg/mL. Working solutions of the tested compounds were then prepared from the stock solutions, in Mueller-Hinton broth (MHB) with a starting concentration of 64 μg/mL.
Microplate wells were filled with two-fold dilutions of test compound (50 μl), starting with 64 μg/ml. Wells were then filled with 50 μl of bacterial inoculum (final volume: 100 μl/well). The plates were incubated at 37° C. for 18-24 hours (S. pneumoniae was grown in a CO2-enriched atmosphere).

Setting [3] is: second part of table, read-out: bDHFR.
Where [4] appears, read: Table 2, 90% inhibition of growth, read-out: MIC S. aureus.

In brackets after ≈: the same amount, converted by molar mass. Where two headings read alike, the source gives them in different places. Where only a bound is given, the exact number is not on record here.

Turning to `CC(c1csc2ccccc12)N(C)c1ncc2c(N)nc(N)nc2n1` (stereo not drawn) [Compound 25], the MIC in the assay on S. aureus [1] (MIC, average, read-out: S. aureus (μg/ml) avg) amounted to 0.25 µg/mL (≈ 0.711 µM). In the assay with S. aureus [2], the “treated animals protected from the lethal infection” value stood at 40%. The Ki on bacterial DHFR (bDHFR) (average, read-out: bDHFR Ki/(μM) avg) is 0.004 µM; on bacterial DHFR (bDHFR) (setting [3]) it was less than 0.004 µM.
In the case of `Cc1ccc(C(C)N(C)c2ncc3c(N)nc(N)nc3n2)c2ccccc12` (stereo not drawn) [Compound 62], the “treated animals protected from the lethal infection” value in the assay on S. aureus [2] is reported as 40%. Also, the Ki at bacterial DHFR (bDHFR) (setting [3]) came to 0.802 µM.
Turning to `CN(Cc1cnc2nc(N)nc(N)c2n1)c1ccc(C(=O)NCc2ccncc2)cc1` [Compound 5], the MIC in the assay with S. aureus [1] (setting [4]) is 16 to 64 µg/mL (≈ 38.5 to 154 µM); against S. pneumoniae, 2 to 8 µg/mL (≈ 4.81 to 19.3 µM); with E. faecalis, 2 to 8 µg/mL (≈ 4.81 to 19.3 µM); in the assay with E. coli, greater than 64 µg/mL; with P. aeruginosa, greater than 64 µg/mL; in the assay on H. influenzae it was 2 to 8 µg/mL (≈ 4.81 to 19.3 µM). The MIC against M. catarrhalis was 2 to 8 µg/mL (≈ 4.81 to 19.3 µM); in the assay with S. cerevisiae, greater than 64 µg/mL. For the same molecule, the Ki at human DHFR (hDHFR) is 500 to 999 nM; on bacterial DHFR (bDHFR) (Table 3, read-out: bDHFR Ki), less than 0.1 µM.
As to `CN(Cc1cnc2nc(N)nc(N)c2n1)c1ccc(C(=O)NCc2cccnc2)cc1` [Compound 4], the MIC in the assay on S. aureus [1] (setting [4]) was 16 to 64 µg/mL (≈ 38.5 to 154 µM); against S. pneumoniae it was 2 to 8 µg/mL (≈ 4.81 to 19.3 µM); against E. faecalis, 2 to 8 µg/mL (≈ 4.81 to 19.3 µM); against E. coli, greater than 64 µg/mL; with P. aeruginosa, greater than 64 µg/mL; with H. influenzae it was 2 to 8 µg/mL (≈ 4.81 to 19.3 µM). The MIC against M. catarrhalis was 16 to 64 µg/mL (≈ 38.5 to 154 µM); in the assay with S. cerevisiae, greater than 64 µg/mL. Further, the Ki at human DHFR (hDHFR) was 500 to 999 nM; on bacterial DHFR (bDHFR) (Table 3, read-out: bDHFR Ki), less than 0.1 µM.
On to `Nc1nc(N)c2nc(CNc3ccc4c(c3)OCO4)cnc2n1` [Compound 8], for which the MIC in the assay on S. aureus [1] (setting [4]) was 2 to 8 µg/mL (≈ 6.42 to 25.7 µM); against S. pneumoniae, 2 to 8 µg/mL (≈ 6.42 to 25.7 µM); in the assay with E. faecalis, 2 to 8 µg/mL (≈ 6.42 to 25.7 µM); against E. coli, greater than 64 µg/mL; in the assay with P. aeruginosa it was greater than 64 µg/mL; in the assay on H. influenzae, 2 to 8 µg/mL (≈ 6.42 to 25.7 µM). The MIC was 2 to 8 µg/mL (≈ 6.42 to 25.7 µM) against M. catarrhalis and greater than 64 µg/mL against S. cerevisiae. For the same molecule, the Ki was greater than 5000 nM on human DHFR (hDHFR) and 1 to 5 µM at bacterial DHFR (bDHFR) (Table 3, read-out: bDHFR Ki).
